Patent US11229618B2 (Amarin Pharmaceuticals Ireland Limited, priority 2012, dated 2022)

System: subjects with Age-Associated Memory Impairment
Assay: AAMI 6-week study: CDR computerized cognitive test battery
Format: in vivo, human
Details: for Quality of Episodic Secondary Memory, LS mean difference versus placebo: overall; for Self-Rated Contentment, treatment effects: p<0.001
Procedure: A single-center, 6-week, double-blind, randomizes, parallel-group, placebo-controlled, dose-ranging pilot study was performed to evaluate the efficacy, tolerability, and safety of >96% ethyl-EPA in subjects with subjective and objective memory impairment according to generally accepted criteria for Age-Associated Memory Impairment (“AAMI”). The primary objective of the study was to determine the effect of >96% ethyl-EPA 1 g, 2 g, and 4 g daily, compared to placebo, on cognitive performance in subjects with AAMI.
Ninety-four subjects were randomized into one of six groups: 1 g E-EPA daily (n=23), 2 g E-EPA daily (n=24), 4 g E-EPA daily (n=24), 1 g placebo daily (n=7), 2 g placebo daily (n=8), and 4 g placebo daily (n=8). E-EPA was provided as 500 mg soft gel capsules containing>96% E-EPA and 0.2% dl-α-tocopherol as an antioxidant. Placebo capsules contained 467 mg of liquid paraffin and 0.2% dl-α-tocopherol. Ninety-one subjects completed the study. Two subjects in the 2 g E-EPA group and one subject in the 2 g placebo group discontinued the study.
The study consisted of a screening visit, a training visit, and four study visits. At the screening visit, subjects' eligibility was determined through cognitive tests (verbal paired associated learning [PAL] subscale, vocabulary subtest, Memory Assessment Clinics Questionnaire [MAC-Q], mini mental state evaluation [MMSE] and MINI [mini international neuropsychiatric interview; sections 1 and 2 of Diagnostic and Statistical Manual of Mental Disorders, 4th Edition (DSM-IV) plus dysthymia]), haematology, clinical chemistry and 12-lead electrocardiogram (ECG). At the training visit, subjects were shown how to use the CDR computerized system. Subjects took study drug for 6 weeks and on Days 0, 14, 28 and 42, subjects underwent the CDR cognitive test battery.
A selection of tasks from the CDR computerized cognitive assessment system were administered at Visit 2 (training visit), Visit 3 (baseline), Visit 4 (Day 14), Visit 5 (Day 28) and Visit 6 (Day 42). Parallel forms of the tests were presented at each testing session. All tasks were computer-controlled, the information presented on high resolution monitors, and the responses recorded via a response model containing two buttons: one marked ‘no’ and the other ‘yes’. Five CDR composite scores were used as the primary/secondary outcome variables. The task titles were: • Word Presentation • Immediate Word Recall • Picture Presentation • Simple Reaction Time • Digit Vigilance • Choice Reaction Time • Spatial Working Memory • Numeric Working Memory • Delayed Word Recall • Word Recognition • Picture Recognition • Bond-Lader Visual Analogue Scales of Mood and Alertness • Screen, Using the Computer Mouse
Difference from baseline data for each major variable was evaluated by an Analysis of Covariance (“ANCOVA”) using SAS® PROC MIXED Version 8.2. Fixed effects for treatment, day, time point, treatment by day, treatment by time point, treatment by day by time-point were fitted. Subject within treatment was fitted as a repeated effect using the repeated statement. The compound symmetry covariance structure was used. Subjects' time-matched predose assessments on Day 0 were used as a covariate in the analysis.
Least squares means (LS means) were calculated for treatment by day, treatment by time-point and treatment by day by time-point interaction. This formal analysis was conducted for the ITT and Study PP Populations separately.
A post-hoc analysis compared the individual placebo groups (1 g, 2 g and 4 g paraffin oil) with the corresponding ethyl-EPA doses.

[1] = post-hoc analysis, 1 g, Days 14 and 28

SMILES: CC/C=C\C/C=C\C/C=C\C/C=C\C/C=C\CCCC(=O)OCC [IPE, all-cis eicosa-5,8,11,14,17-pentaenoic acid ethyl ester]
- Continuity of Attention, effect of treatment (ITT): no statistically significant effect of treatment
- Quality of Episodic Secondary Memory, effect of treatment (ITT): no statistically significant effect of treatment
- Self-Rated Alertness, effect of treatment (ITT): no statistically significant effect of treatment
- Self-Rated Calmness, effect of treatment (ITT): no statistically significant effect of treatment
- Self-Rated Contentment, LS mean difference to placebo (ITT): no statistically significant effects
- Speed of Memory and contributing subtasks, effect of treatment (ITT): no statistically significant effects of treatment
- Power of Attention, effect of treatment (ITT, 1, 2, 4 g daily vs placebo): no statistically significant effect of treatment
- Immediate Word Recall Accuracy, LS mean difference versus placebo (ITT, 1 g, AM 1, p=0.040): statistically significant decreases
- Immediate Word Recall Accuracy, LS mean difference versus placebo (ITT, 1 g, Day 14, p=0.028): statistically significant decreases
- Picture Recognition Speed versus placebo (ITT, 1 g, Day 14 at AM 2, p=0.084): trends for benefits
- Immediate Word Recall Accuracy, LS mean difference versus placebo (ITT, 1 g, Day 14 at PM 2, p=0.020): statistically significant decreases
- Word Recognition Sensitivity Index, LS mean difference versus placebo (ITT, 1 g, Day 28, p=0.024): statistically significant decreases
- Picture Recognition Speed versus placebo (ITT, 1 g, Day 28 at AM 1, p=0.085): trends for benefits
- Picture Recognition Sensitivity Index, LS mean difference versus placebo (ITT, 1 g, Day 28 at AM 2, p=0.017): statistically significant decrease
- Picture Recognition Sensitivity Index, LS mean difference versus placebo (ITT, 1 g, Day 28 at PM 2, p=0.040): statistically significant decrease
- Quality of Episodic Secondary Memory, LS mean difference versus placebo (ITT, 1 g, p=0.040): statistically significant decreases
- Immediate Word Recall Accuracy, LS mean difference versus placebo (ITT, 2 g, AM 1, p=0.028): statistically significant decreases
- Immediate Word Recall Accuracy, LS mean difference versus placebo (ITT, 2 g, Day 28, p=0.017): statistically significant decreases
- Self-Rated Alertness, LS mean difference versus placebo (ITT, 2 g, Day 28, p=0.047): statistically significant decrease in ratings
- Immediate Word Recall Accuracy, LS mean difference versus placebo (ITT, 2 g, Day 28 at AM 1, p=0.006): statistically significant decreases
- Self-Rated Alertness, LS mean difference versus placebo (ITT, 2 g, Day 28 at AM 2, p=0.041): statistically significant decrease in ratings
- Quality of Episodic Secondary Memory, LS mean difference versus placebo (ITT, 2 g, p=0.035): statistically significant decreases
- Spatial Working Memory Speed, LS mean difference versus placebo (ITT, 4 g, Day 14 at PM 1, p=0.048): statistically significant benefit
- Word Recognition Sensitivity Index, LS mean difference versus placebo (ITT, 4 g, Day 28 at PM 2, p=0.030): statistically significant decrease
- Word Recognition Sensitivity Index, LS mean difference versus placebo (ITT, 4 g, Day 42, p=0.038): statistically significant decreases
- Spatial Working Memory Speed, LS mean difference versus placebo (ITT, 4 g, Day 42 at AM 1, p=0.061): trend for a benefit
- Word Recognition Sensitivity Index, LS mean difference versus placebo (ITT, 4 g, PM 2, p=0.045): statistically significant decrease
- Self-Rated Contentment, treatment effects (ITT): statistically significant treatment by day interaction
- Choice Reaction Time, treatment effects (ITT, p=0.011): statistically significant treatment by day interaction
- Spatial Working Memory Sensitivity Index, treatment effects (ITT, p=0.015): statistically significant treatment by day interaction
- Quality of Working Memory, treatment effects (ITT, p=0.019): statistically significant treatment by day interaction
- Numeric Working Memory Sensitivity Index, treatment effects (ITT, p=0.089): statistical trend for a treatment by day interaction
- Continuity of Attention, effect of treatment (Study Per Protocol): no statistically significant effect of treatment
- Digit Vigilance Targets Detected, treatment effects (Study Per Protocol, p=0.040): statistically significant treatment by time-point interaction
- Power of Attention, effect of treatment (Study Per-Protocol): no statistically significant effect of treatment
- Quality of Episodic Secondary Memory, effect of treatment (Study Per-Protocol): no statistically significant effects of treatment
- Self-Rated Alertness, effect of treatment (Study Per-Protocol): no statistically significant effect of treatment
- Self-Rated Calmness, effect of treatment (Study Per-Protocol): no statistically significant effect of treatment
- Self-Rated Contentment, LS mean difference to placebo (Study Per-Protocol): no statistically significant effects
- Speed of Memory and contributing subtasks, effect of treatment (Study Per-Protocol): no statistical significant effects of treatment
- Immediate Word Recall Accuracy, LS mean difference to placebo (Study Per-Protocol, 1 g, AM 1, p=0.038): statistically significant decreases
- Immediate Word Recall Accuracy, LS mean difference to placebo (Study Per-Protocol, 1 g, AM 2, p=0.048): statistically significant decreases
- Immediate Word Recall Accuracy, LS mean difference to placebo (Study Per-Protocol, 1 g, Day 14, p=0.024): statistically significant decreases
- Immediate Word Recall Accuracy, LS mean difference to placebo (Study Per-Protocol, 1 g, Day 14 at PM 2, p=0.019): statistically significant decreases
- Word Recognition Sensitivity Index, LS mean difference to placebo (Study Per-Protocol, 1 g, Day 28, p=0.027): statistically significant decreases
- Picture Recognition Sensitivity Index, LS mean difference versus placebo (Study Per-Protocol, 1 g, Day 28 at AM 2, p=0.020): statistically significant decreases
- Picture Recognition Sensitivity Index, LS mean difference versus placebo (Study Per-Protocol, 1 g, Day 28 at PM 2, p=0.026): statistically significant decreases
- Quality of Episodic Secondary Memory, LS mean difference versus placebo (Study Per-Protocol, 1 g, p=0.043): statistically significant decreases
- Immediate Word Recall Accuracy, LS mean difference to placebo (Study Per-Protocol, 2 g, AM 1, p=0.029): statistically significant decreases
- Immediate Word Recall Accuracy, LS mean difference to placebo (Study Per-Protocol, 2 g, Day 28, p=0.017): statistically significant decreases
- Self-Rated Alertness, LS mean difference versus placebo (Study Per-Protocol, 2 g, Day 28, p=0.035): statistically significant decrease in ratings
- Immediate Word Recall Accuracy, LS mean difference to placebo (Study Per-Protocol, 2 g, Day 28 at AM 1, p=0.006): statistically significant decreases
- Self-Rated Alertness, LS mean difference versus placebo (Study Per-Protocol, 2 g, Day 28 at AM 2, p=0.033): statistically significant decrease in ratings
- Quality of Episodic Secondary Memory, LS mean difference versus placebo (Study Per-Protocol, 2 g, p=0.036): statistically significant decreases
- Word Recognition Sensitivity Index, LS mean difference to placebo (Study Per-Protocol, 4 g, Day 42, p=0.038): statistically significant decreases
- Self-Rated Calmness, LS mean difference versus placebo (Study Per-Protocol, 4 g, Day 42 at PM 1, p=0.071): statistical trend for an increase in ratings
- Self-Rated Contentment, treatment effects (Study Per-Protocol): statistically significant treatment by day interaction
- Choice Reaction Time, treatment effects (Study Per-Protocol, p=0.013): statistically significant treatment by day interaction
- Spatial Working Memory Sensitivity Index, treatment effects (Study Per-Protocol, p=0.014): statistically significant treatment by day interaction
- Quality of Working Memory, treatment effects (Study Per-Protocol, p=0.021): statistically significant treatment by day interaction
- Self-Rated Calmness versus corresponding placebo (post-hoc analysis): no differences between active treatment and placebo
- Self-rated Alertness versus corresponding placebo [1]: decreases in ratings
- Self-rated Contentment versus corresponding placebo [1]: decreases in ratings
- Power of Attention versus corresponding placebo (post-hoc analysis, 4 g, Day 42): overall benefit versus the corresponding placebo
- Spatial Working Memory Sensitivity Index versus corresponding placebo (post-hoc analysis, 4 g, Day 42, Study PP Population): overall benefit
- Simple Reaction Time versus corresponding placebo (post-hoc analysis, 4 g, PM 2 collapsed across days and several time-points on Days 14 and 42): improvements in performance
- Choice Reaction Time versus corresponding placebo (post-hoc analysis, 4 g, all study days): overall benefit versus corresponding placebo
- subtask measures of Speed of Memory versus corresponding placebo (post-hoc analysis, mostly for 1 g): some signs of improvement in performance
